pIC50: −log10 of the molar value. Like-named read-outs stand apart in the source and are kept apart here.
Assays:
[1] = test system: U87-MG tumors; test: Human brain tumor xenografts (U87-MG) in athymic nude mice, tumor volume % T/C; assay type: in vivo
Protocol: (§1) Female athymic nude mice (Harlan Laboratories Models, S.L. (Barcelona, Spain) were utilized for all experiments. Animals were housed in individually ventilated cages, up to ten per cage in a 12-hour light-dark cycle at 21-23° C. and 40-60% humidity. The mice were allowed free access to irradiated standard rodent diet and sterilized water. Animals were acclimated for at least 5 days prior to tumor implantation with a tumor cell suspension.
The tumor model used in these studies was U87-MG cell line, which was obtained from the American Type Culture Collection (ATCC HTB-14™).
U87-MG cells were grown at 37° C. with 5% CO2 in Minimum Essential Medium Eagle (MEME). Each animal was subcutaneously implanted on the right flank, using 26G needle and a 1 cc syringe, with 5×10^6 U87-MG cells, from in vitro passage 5, in 0.05 mL suspension of 50% Matrigel and 50% serum free medium, without antibiotics.
(§2) PM01183 was provided in the form of vials of lyophilized PM01183 cake which was reconstituted with water for infusion to a concentration of 0.2 mg/mL. The PM01183 stock solution was further diluted in 5% glucose solution for injection to the dosing formulation concentrations. Temozolomide was provided as a solution prepared by diluting the product in DMSO 10% in 0.9% saline solution for injection to the target final concentration.
In these experiments, PM01183 and temozolomide treatments, as well as placebo, were administered as follows: PM01183, intravenously once per week up to 3 consecutive weeks, on Days 0, 7 and 14, temozolomide orally, in a daily basis during 8 consecutive days (Days 0 to 7), and placebo was administered following the same schedule as those provided for PM01183 and temozolomide. Dose level groups were administered either as single agents or in combination.
(§3) Comparison of the median tumor volume in the treatment groups (T) to the median tumor volume in the control group (T/C×100%) was used for evaluation of the antitumor efficacy.

[2] = test system: A549 human lung carcinoma cell line; test: MTT cytotoxicity assay in A549 cells: IC50 of single agents and combinations with PM01183; assay type: cell-based; conditions: Homo sapiens
Protocol: (§4) Additional serial dilutions were prepared in serum-free culture medium to achieve a final 4× concentration. Aliquots of 50 μL of each diluted compound were added per well.
A549 was the human lung carcinoma cell line selected for this assay.
(§5) a. […] Briefly, cells were harvested and seeded in 96 well microtiter plates at a density of 5,000 cells in 150 μL of culture medium and incubated for 24 hours in drug-free medium before treatment with vehicle alone or test compounds for 72 h.
(§6) The cytotoxic effect was measured by the MTT reduction assay, in which 3-(4,5-Dimethylthiazol-2-yl)-2,5-diphenyltetrazolium bromide, a tetrazole, which is reduced to purple formazan in the mitochondria of living cells, was used. MTT (50 μL of 1 mg/mL stock solution) was added to the wells and incubated for 8 hours at 37° C. until formazan crystals were formed. After gently removing the culture medium, DMSO was added to dissolve the insoluble purple formazan product into a colored solution. […] Results were expressed as percentage of control cell growth.
(§7) b. In a second set of assays, A549 human tumor cells were incubated with PM01183 in combination with each of the agents mentioned above.
(§8) As a visual aid, response values were plotted on a scatter plot with dose ratios given on the x-axis and % response values on the y-axis. […] In cases where response values at the two endpoints were approximately equivalent, points lying above or below this predicted line of additivity could be interpreted as representing antagonistic or synergistic drug interaction, respectively.

[3] = test system: A673 human rhabdomyosarcoma cell line; test: cells; conditions: Homo sapiens, A673, 72 h
Protocol: as §5, §6, §7, §8, §4
A673 was the human rhabdomyosarcoma cell line selected for this assay.

[4] = test system: PC-3 human prostate cancer cell line; test: cells; conditions: Homo sapiens, PC-3, 72 h
Protocol: as §5, §6, §7, §8, §4
PC-3 was the human prostate adenocarcinome cell line selected for this assay.

[5] = test system: IGROV-1 human ovarian adenocarcinoma cell line; test: cells; conditions: Homo sapiens, IGROV-1, 72 h
Protocol: as §5, §6, §7, §8, §4
IGROV-1 was the human ovarian adenocarcinoma cell line selected for this assay.

[6] = test system: HepG2 human hepatocellular liver carcinoma cell line; test: MTT cytotoxicity assay in HepG2 cells: IC50 of single agents and combinations with PM01183; assay type: cell-based; conditions: Homo sapiens
Protocol: as §5, §6, §7, §8, §4
HepG2 was the human hepatocellular liver carcinoma cell line selected for this assay.

[7] = test system: MDA-MB-231 human breast adenocarcinoma cell line; test: cells; conditions: Homo sapiens, MDA-MB-231, 72 h
Protocol: as §5, §6, §7, §8, §4

[8] = test system: RXF-393 human kidney carcinoma cell line; test: cells; conditions: Homo sapiens, RXF 393, 72 h
Protocol: as §5, §6, §7, §8, §4

[9] = test system: HT-29 human colon adenocarcinoma cell line; test: cells; conditions: Homo sapiens, HT-29, 72 h
Protocol: as §5, §6, §7, §8, §4
HT-29 was the human colon adenocarcinoma cell line selected for this assay.

[10] = test system: U87-MG human glioblastoma cell line; test: cells; conditions: Homo sapiens, U-87 MG, 72 h
Protocol: as §5, §6, §7, §8, §4
U87-MG was the human glioblastoma cell line selected for this assay.

[11] = test system: HGC-27 human gastric carcinoma cell line; test: cells; conditions: Homo sapiens, HGC-27, 72 h
Protocol: as §5, §6, §7, §8, §4
HGC-27 was the human gastric carcinoma cell line selected for this assay.

[12] = test system: A2780 tumors; test: Human ovarian tumor xenografts (A2780) in athymic nude mice, tumor volume % T/C; assay type: in vivo
Protocol: as §1
The formula to calculate volume for a prolate ellipsoid was used to estimate tumor volume (mm^3) from 2-dimensional tumor measurements: Tumor volume (mm^3)=[L×W^2]÷2, where L is the length and it is the longest diameter in mm, and W is the width and it is the shortest diameter in mm of a tumor. Assuming unit density, volume was converted to weight (i.e., 1 mm^3=1 mg). Tumor volume and animal body weights were measured 2-3 times per week starting form the first day of treatment (Day 0).
as §2, with “[…] Vinorelbine” for “Temozolomide”, “with” for “in DMSO 10% in”, “solution.” for “solution for injection to the target final concentration.”
Dose level groups were administered either as single agents or in combination.
as §3
Day 9 for PM01183 and vinorelbine study) using the median-effect principle (Chou T. C. Pharmacol. Rev.

[13] = temozolomide 1.5 mg/kg orally daily days 0 to 7
[14] = temozolomide 3 mg/kg orally daily days 0 to 7
[15] = A549, 72 hours drug exposure, MTT, read-out: IC50
[16] = HepG2, 72 hours drug exposure, MTT, read-out: IC50
[17] = vinorelbine 4.0 mg/kg iv days 0,7
[18] = vinorelbine 8.0 mg/kg iv days 0,7
[19] = paclitaxel 6.25 mg/kg iv days 0,7
[20] = paclitaxel 12.5 mg/kg iv days 0,7
[21] = paclitaxel 18.75 mg/kg iv days 0,7
[22] = paclitaxel 25 mg/kg iv days 0,7

Cn1nnc2c(C(N)=O)ncn2c1=O [temozolomide]
% T/C on day 0 ([1]; Temozolomide 1.0 mg/kg): 98.2%
% T/C on day 2 ([1]; Temozolomide 1.0 mg/kg): 100.2%
% T/C on day 4 ([1]; Temozolomide 1.0 mg/kg): 65.1%
% T/C on day 7 ([1]; Temozolomide 1.0 mg/kg): 81.2%
% T/C on day 9 ([1]; Temozolomide 1.0 mg/kg): 55.0%
% T/C on day 11 ([1]; Temozolomide 1.0 mg/kg, day 11): 63.5%
% T/C on day 14 ([1]; Temozolomide 1.0 mg/kg, day 14): 73.1%
% T/C on day 16 ([1]; Temozolomide 1.0 mg/kg, day 16): 75.0%
% T/C on day 0 ([1]; Temozolomide 1.5 mg/kg): 94.1%
% T/C on day 2 ([1]; Temozolomide 1.5 mg/kg): 96.9%
% T/C on day 4 ([1]; Temozolomide 1.5 mg/kg): 75.6%
% T/C on day 7 ([1]; Temozolomide 1.5 mg/kg): 73.0%
% T/C on day 9 ([1]; Temozolomide 1.5 mg/kg): 56.5%
% T/C on day 11 ([1]; Temozolomide 1.5 mg/kg, day 11): 59.3%
% T/C on day 14 ([1]; Temozolomide 1.5 mg/kg, day 14): 50.0%
% T/C on day 16 ([1]; Temozolomide 1.5 mg/kg, day 16): 53.5%
% T/C on day 0 ([1]; Temozolomide 3.0 mg/kg): 97.1%
% T/C on day 2 ([1]; Temozolomide 3.0 mg/kg): 95.5%
% T/C on day 4 ([1]; Temozolomide 3.0 mg/kg): 67.3%
% T/C on day 7 ([1]; Temozolomide 3.0 mg/kg): 39.4%
% T/C on day 9 ([1]; Temozolomide 3.0 mg/kg): 25.3%
% T/C on day 11 ([1]; Temozolomide 3.0 mg/kg, day 11): 22.9%
% T/C on day 14 ([1]; Temozolomide 3.0 mg/kg, day 14): 28.4%
% T/C on day 16 ([1]; Temozolomide 3.0 mg/kg, day 16): 31.5%
% T/C on day 11 [1, 13]: 59.3%
% T/C on day 14 [1, 13]: 50.0%
% T/C on day 16 [1, 13]: 53.5%
% T/C on day 11 [1, 14]: 22.9%
% T/C on day 14 [1, 14]: 28.4%
% T/C on day 16 [1, 14]: 31.5%

CC(=O)O[C@@]12CO[C@@H]1C[C@H](O)[C@@]1(C)C(=O)[C@H](O)C3=C(C)[C@@H](OC(=O)[C@H](O)[C@@H](NC(=O)OC(C)(C)C)c4ccccc4)C[C@@](O)([C@@H](OC(=O)c4ccccc4)[C@H]21)C3(C)C [Docetaxel, docetaxel]
pIC50 [2, 15]: 8.52
pIC50 [3]: 9.19
pIC50 [4]: 7.73
pIC50 [5]: 7.30
pIC50 [6, 16]: 6.30
pIC50 [7]: 8.60
pIC50 [8]: 9.23
pIC50 [9]: 9.49
pIC50 [10]: 7.00

CC(C)C(=O)Nc1ccc([N+](=O)[O-])c(C(F)(F)F)c1 [Flutamide, flutamide]
pIC50 [4]: 4.31

CCC1=C[C@@H]2CN(C1)Cc1c([nH]c3ccccc13)[C@@](C(=O)OC)(c1cc3c(cc1OC)N(C)[C@H]1[C@@](O)(C(=O)OC)[C@H](OC(C)=O)[C@]4(CC)C=CCN5CC[C@]31[C@@H]54)C2 [Vinorelbine, vinorelbine]
pIC50 [3]: 7.30
pIC50 [4]: 5.00
pIC50 [11]: 7.19
pIC50 [5]: 5.86
pIC50 [6, 16]: 5.99
pIC50 [7]: 4.92
pIC50 [8]: 5.07
pIC50 [9]: 7.52
% T/C on day 0 [12, 17]: 97.2%
% T/C on day 2 [12, 17]: 88.6%
% T/C on day 5 [12, 17]: 69.3%
% T/C on day 7 [12, 17]: 81.7%
% T/C on day 9 [12, 17]: 77.3%
% T/C on day 0 [12, 18]: 97.6%
% T/C on day 2 [12, 18]: 79.5%
% T/C on day 5 [12, 18]: 45.0%
% T/C on day 7 [12, 18]: 54.2%
% T/C on day 9 [12, 18]: 47.9%

CC(=O)O[C@H]1C(=O)[C@@]2(C)[C@H]([C@H](OC(=O)c3ccccc3)[C@]3(O)C[C@H](OC(=O)[C@H](O)[C@@H](NC(=O)c4ccccc4)c4ccccc4)C(C)=C1C3(C)C)[C@]1(OC(C)=O)CO[C@@H]1C[C@@H]2O [Paclitaxel, paclitaxel]
pIC50 ([2]; A549, 72 h): 7.40
pIC50 [4]: 7.05
pIC50 [11]: 8.30
pIC50 [5]: 7.02
pIC50 ([6]; HepG2, 72 h): 7.24
pIC50 [7]: 8.07
% T/C on day 0 [12, 19]: 94.3%
% T/C on day 3 [12, 19]: 60.2%
% T/C on day 5 [12, 19]: 79.7%
% T/C on day 7 [12, 19]: 81.3%
% T/C on day 10 [12, 19]: 59.2%
% T/C on day 0 [12, 20]: 96.2%
% T/C on day 3 [12, 20]: 62.5%
% T/C on day 5 [12, 20]: 73.9%
% T/C on day 7 [12, 20]: 62.5%
% T/C on day 10 [12, 20]: 50.8%
% T/C on day 0 [12, 21]: 95.0%
% T/C on day 3 [12, 21]: 60.4%
% T/C on day 7 [12, 21]: 41.5%
% T/C on day 10 [12, 21]: 31.1%
% T/C on day 0 [12, 22]: 95.3%
% T/C on day 3 [12, 22]: 49.3%
% T/C on day 7 [12, 22]: 34.0%
% T/C on day 10 [12, 22]: 19.8%

O=P1(N(CCCl)CCCl)NCCCO1 (stereo not shown) [Cyclophosphamide, cyclophosphamide]
pIC50 ([2]; A549, 72 h): 3.00
pIC50 [3]: 3.00
pIC50 [11]: 3.00
pIC50 [5]: 3.00
pIC50 ([6]; HepG2, 72 h): 3.00
pIC50 [7]: 3.00
pIC50 [8]: 3.00
pIC50 [9]: 3.00

O=NN(CCCl)C(=O)NCCCl [Carmustine, carmustine]
pIC50 [2, 15]: 3.00
pIC50 [5]: 3.15
pIC50 [7]: 3.05

O=C(CCCCCCC(=O)Nc1ccccc1)NO [Vorinostat, vorinostat]
pIC50 [3]: 5.67
pIC50 [5]: 5.54

CC[C@]1(O)C[C@H]2CN(CCc3c([nH]c4ccccc34)[C@@](C(=O)OC)(c3cc4c(cc3OC)N(C=O)[C@H]3[C@@](O)(C(=O)OC)[C@H](OC(C)=O)[C@]5(CC)C=CCN6CC[C@]43[C@@H]65)C2)C1 [Vincristine, vincristine]
pIC50 [2, 15]: 6.60
pIC50 [3]: 8.07
pIC50 [11]: 7.90
pIC50 [5]: 6.42
pIC50 [6, 16]: 7.22
pIC50 [7]: 7.30
pIC50 [8]: 7.76
pIC50 [10]: 7.00

Reference: patent US11590129B2, “Combination therapy with an antitumor alkaloid” (PHARMA MAR, S.A., priority 2010, dated 2023)
